From patent US20180015100A1, “COMBINATION PRODUCTS FOR THE TREATMENT OF BACTERIAL INFECTIONS AND METHODS OF PRODUCING OR DOSING OF SAME” (priority 2016, published 2018)
In brackets after ≈: the same amount, converted by molar mass.

Key:
CTX-M-15 = CTX-M-15 (Escherichia coli, UniProt Q9EXV5); format: biochemical
[1] = tested on: ESBL Escherichia coli isolates; assay: Killing kinetics (time-kill); format: cell-based; settings: 4X MIC of CTB+CLA
[2] = tested on: ESBL Klebsiella pneumoniae isolates; assay: MIC against isolates analyzed in time-kill experiments; format: cell-based
[3] = tested on: ESBL-producing Enterobacteriaceae isolates (panel of nineteen); assay: MIC of cephalosporins alone or with clavulanate/tazobactam, whole panel; format: cell-based; settings: cephalosporin alone
[4] = tested on: E. coli clinical isolate expressing the ESBL CTX-M-15; format: in vivo, mouse; settings: 0.5-4 mg/kg q4 hr s.c. for 3 days
[5] = tested on: ESBL Klebsiella pneumoniae isolates; assay: Killing kinetics (time-kill); format: cell-based; settings: 4X MIC of CTB+CLA
[6] = tested on: Enterobacter aerogenes isolates; assay: MIC of cephalosporins alone or with clavulanate/tazobactam; format: cell-based; settings: Klebsiella aerogenes, clavulanate 2:1, tazobactam 4 μg/mL
[7] = tested on: ESBL Escherichia coli isolates; assay: MIC against isolates analyzed in time-kill experiments; format: cell-based
[8] = tested on: Enterobacter cloacae isolates; assay: MIC of cephalosporins alone or with clavulanate/tazobactam; format: cell-based; settings: clavulanate 2:1, tazobactam 4 μg/mL
clinical = settings: human, in vivo, 400 mg
Experimental: The twice daily divided dose of study drug was administered approximately 12 hours apart. All subjects randomized to placebo received placebo oral capsules that were identical to study drug capsules and given according to the same dosing schedule and same quantity of capsules as subjects randomized to receive ceftibuten and clavulanate concurrently. All SDs, as well as the first daily dose of the MD period on […] were given while the subject was fasted. […] In addition, blood samples for assessment of trough (pre-dose) concentrations were collected on day 7, day 8, day 9, and alternate days thereafter through study day 17. […] Peak concentration (Cmax), time at which Cmax was observed (Tmax), area under the concentration-time curve to infinity (AUCinf), percent coefficient of variation (% CV), elimination half-life (T1/2), apparent total clearance of the drug from plasma after oral administration (CL/F), and apparent volume of distribution during terminal phase after non-intravenous administration (Vz/F) were determined. […] Similar to above, six subjects were randomized to receive active drug and two were randomized to receive placebo. […] Safety, tolerability and PK were assessed as described above.

[9] = in vivo, cited from earlier work
[10] = In vivo drug-drug interaction, plasma pharmacokinetics after oral bolus; settings: rat, oral 34.5 mg/kg ceftibuten ± 10.8 mg/kg clavulanate
E. coli (ATCC 25922) = assay: One-compartment in vitro chemostat infection model, ceftibuten alone; format: cell-based
Experimental: Becton, Dickinson and Company, Sparks, Md.) and placed in a water bath at 35° C. Magnetic stirrers were used for consistent mixing of the contents during the experiment. […] For each drug exposure/bacteria combination, the experiment was conducted over 24 hours and consisted of a drug free control and two experimental (i.e., drug containing) replicate models. Data from the two replicate models were treated as independent exposures given there is some expected variability in obtained concentrations due to small inconsistencies in volume flows between the chemostat models. A peristaltic pump (Masterflex L/S model 7524-40; Cole-Parmer, Vernon Hills, Ill.) was set to infuse CAMHB into the models at a desired elimination rate for the drug. Broth samples were collected from the model throughout the experiment to determine free drug concentrations and bacterial density. Antibiotic carryover was minimized by serial dilution of samples. Bacterial density was counted after 18-24 hours incubation at 37° C. […] Time-kill curves were constructed by plotting the log10 CFU/mL against time. […] The control models served to define 0% fT>MIC results. […] Drug concentrations were assessed at the peak and trough of each administered dose to achieve the desired exposure and at least one other midpoint concentration for each interval. […] The change in log10 CFU/ml at 24 hours was the primary endpoint for exposure response relationship. […] Mountain View, Calif.).

[11] = tested on: Yersinia pestis Colorado92; assay: microbe, parasite or virus in culture; format: cell-based
[12] = tested on: Burkholderia mallei China7; assay: microbe, parasite or virus in culture; format: cell-based
[13] = sub-saturating conditions, simulated from measured kinetic constants

CTX-M-15, sequence (Q9EXV5 entry or part of it): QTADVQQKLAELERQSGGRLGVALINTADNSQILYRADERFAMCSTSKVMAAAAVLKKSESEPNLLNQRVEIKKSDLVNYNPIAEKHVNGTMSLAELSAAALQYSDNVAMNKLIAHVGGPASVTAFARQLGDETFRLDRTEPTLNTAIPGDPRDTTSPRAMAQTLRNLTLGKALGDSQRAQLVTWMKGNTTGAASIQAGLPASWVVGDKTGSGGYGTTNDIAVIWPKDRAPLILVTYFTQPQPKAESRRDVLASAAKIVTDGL

In the case of `Nc1nc(/C(=C/CC(=O)O)C(=O)N[C@@H]2C(=O)N3C(C(=O)O)=CCS[C@H]23)cs1` [Ceftibuten, ceftibuten], the “concentration saturating CTX-M-15 activity” value (CTX-M-15; direct-turnover assay) is reported as “did not saturate CTX-M-15 activity”, the Km (CTX-M-15; read-out: KM (95% CI), CTX-M-15-mediated hydrolysis) is reported as > 100 µM and the “fold slower degradation by CTX-M-15 than cefixime” value (CTX-M-15; [13]) is reported as “about 2.5 fold”. For the same molecule, the “fold slower degradation by CTX-M-15 than cefotaxime” value (CTX-M-15; [13]) was ~70 fold, the “fold slower degradation by CTX-M-15 than cefpodoxime” value (CTX-M-15; [13]) was ~67 fold and the “Change in Log10 CFU/mL From Inoculum (0 hr)” value ([1]; AECO1156, 2 h) was 0.33 Log10 CFU/mL. The “Change in Log10 CFU/mL From Inoculum (0 hr)” value ([1]; AECO1156, 4 h) was 2.35 Log10 CFU/mL, the “Change in Log10 CFU/mL From Inoculum (0 hr)” value ([1]; AECO1156, 6 h) was 3.28 Log10 CFU/mL and the “Change in Log10 CFU/mL From Inoculum (0 hr)” value ([1]; AECO1156, 24 h) was 3.98 Log10 CFU/mL. The “Change in Log10 CFU/mL From Inoculum (0 hr)” value ([1]; AECO1157, 2 h) was 1.02 Log10 CFU/mL, the “Change in Log10 CFU/mL From Inoculum (0 hr)” value ([1]; AECO1157, 4 h) was 2.88 Log10 CFU/mL and the “Change in Log10 CFU/mL From Inoculum (0 hr)” value ([1]; AECO1157, 6 h) was 3.29 Log10 CFU/mL. For the same molecule, the “Change in Log10 CFU/mL From Inoculum (0 hr)” value ([1]; AECO1157, 24 h) was 3.63 Log10 CFU/mL, the “Change in Log10 CFU/mL From Inoculum (0 hr)” value ([1]; AECO1162, 2 h) was −0.36 Log10 CFU/mL and the “Change in Log10 CFU/mL From Inoculum (0 hr)” value ([1]; AECO1162, 4 h) was 0.17 Log10 CFU/mL. For the same molecule, the “Change in Log10 CFU/mL From Inoculum (0 hr)” value ([1]; AECO1162, 6 h) was 2.19 Log10 CFU/mL, the “Change in Log10 CFU/mL From Inoculum (0 hr)” value ([1]; AECO1162, 24 h) was 3.46 Log10 CFU/mL and the “Change in Log10 CFU/mL From Inoculum (0 hr)” value ([1]; AECO1166, 2 h) was −1.30 Log10 CFU/mL. The “Change in Log10 CFU/mL From Inoculum (0 hr)” value ([1]; AECO1166, 4 h) was 0.58 Log10 CFU/mL, the “Change in Log10 CFU/mL From Inoculum (0 hr)” value ([1]; AECO1166, 6 h) was 2.24 Log10 CFU/mL and the “Change in Log10 CFU/mL From Inoculum (0 hr)” value ([1]; AECO1166, 24 h) was 3.71 Log10 CFU/mL. The MIC ([2]; AKP1162 (SHV-12, CTX-M-15)) was 32 µg/mL (≈ 78 µM), the MIC ([2]; AKPN1159 (SHV-12)) was 4 µg/mL (≈ 9.75 µM) and the “ESBL-producing isolates with MIC<8 μg/mL” value ([3]; 19 isolates) was 10 of 19. The “MICs relative to CLSI/EUCAST MIC breakpoints for the approved dosing regimens” value ([3]; ESBL-producing Enterobacteriaceae) was “above the CLSI/EUCAST”, the “bacterial titers, bladder” value [4] was 4.06-4.58 log10 CFU and the “bacterial titers, kidneys” value [4] was 4.26-5.83 log10 CFU. For the same molecule, the “bacterial titers, urine” value [4] was 3.62-4.81 log10 CFU, the “reduction of bacterial titers relative to untreated control, bladder” value [4] was 2.8-3.35 log10 CFU and the “reduction of bacterial titers relative to untreated control, kidneys” value [4] was 0.6-2.17 log10 CFU. For the same molecule, the “reduction of bacterial titers relative to untreated control, urine” value [4] was 2.46-3.65 log10 CFU, the “Change in Log10 CFU/mL From Inoculum (0 hr)” value ([5]; AKPN1159, 2 h) was 0.65 Log10 CFU/mL and the “Change in Log10 CFU/mL From Inoculum (0 hr)” value ([5]; AKPN1159, 4 h) was 2.37 Log10 CFU/mL. For the same molecule, the “Change in Log10 CFU/mL From Inoculum (0 hr)” value ([5]; AKPN1159, 6 h) was 3.01 Log10 CFU/mL, the “Change in Log10 CFU/mL From Inoculum (0 hr)” value ([5]; AKPN1159, 24 h) was 3.71 Log10 CFU/mL and the “Change in Log10 CFU/mL From Inoculum (0 hr)” value ([5]; AKPN1162, 2 h) was 1.57 Log10 CFU/mL. For the same molecule, the “Change in Log10 CFU/mL From Inoculum (0 hr)” value ([5]; AKPN1162, 4 h) was 2.76 Log10 CFU/mL, the “Change in Log10 CFU/mL From Inoculum (0 hr)” value ([5]; AKPN1162, 6 h) was 2.96 Log10 CFU/mL and the “Change in Log10 CFU/mL From Inoculum (0 hr)” value ([5]; AKPN1162, 24 h) was 3.55 Log10 CFU/mL. The MIC ([6]; AEAE1027 (CTX-M-14)) was 1 µg/mL, the MIC ([6]; AEAE1029 (CTX-M-15)) was 8 µg/mL and the MIC ([7]; AECO1156 (CTXM-15, TEM-OSBL)) was 16 µg/mL (≈ 39 µM). For the same molecule, the MIC ([7]; AECO1157 (CTXM-15, TEM-OSBL)) was 8 µg/mL (≈ 19.5 µM), the MIC ([7]; AECO1162 (CTX-M-14)) was 8 µg/mL (≈ 19.5 µM) and the MIC ([7]; AECO1166 (SHV-12)) was 2 µg/mL (≈ 4.87 µM). The MIC ([8]; AECL1065 (CTX-M-15)) was > 64 µg/mL, the MIC ([8]; AECL1067 (CTX-M-3)) was 32 µg/mL and the “geometric mean % CV of exposure (Cmax and AUCinf)” value (clinical) was 11-16%. For the same molecule, the AUC(0-inf) (clinical; po, AUCinf) was 93000 ng·h/mL, the Cmax (clinical; po, Cmax) was 17900 ng/mL and the half-life (clinical; po, T½) was 187 min. The Vd/F (clinical; po, Vz/F) was 19.3 L, the “Mean Cmax” value ([9]; 400 mg) was 15 µg/mL and the “Mean fCmax” value ([9]; 400 mg) was 5.3 µg/mL. For the same molecule, the bioavailability ([9]; po) was 40-90%, the “time free drug concentrations >2 μg/mL following drug administration” value ([9]; po) was “at least 6 hours” and the Elimination half-life [9] was ~2.4 h. For the same molecule, the “Mean unbound plasma concentration following one elimination half-life” value [9] was 2.6 µg/mL, the “effect of the combination on plasma concentration of ceftibuten vs ceftibuten alone” value [10] was “did not markedly alter” and the “fT > MIC for 1-log CPU reduction” value (E. coli (ATCC 25922); 24 hours, Emax model) was 58.5%. For the same molecule, the “fT > MIC for 2-log CPU reduction” value (E. coli (ATCC 25922); 24 hours, Emax model) was 66.0%, the “fT > MIC for Stasis” value (E. coli (ATCC 25922); 24 hours, Emax model) was 53.7% and the MIC (E. coli (ATCC 25922); Escherichia coli, ATCC25922) was 0.25 µg/mL. It also gave an MIC [11] of 0.03 µg/mL (≈ 0.0731 µM) and an MIC [12] of 1 to 2 µg/mL (≈ 2.44 to 4.87 µM).
